Earlier results in patent publication US20150190399A1, “NEW DIFFERENTIAL-RELEASE PHARMACEUTICAL COMPOSITION CONTAINING THREE ACTIVE PRINCIPLES” (LANDSTEINER SCIENTIFIC S.A. DE C.V., priority 2012, published 2015).

Conditions: in vivo

CCCCc1nc(Cl)c(CO)n1Cc1ccc(-c2ccccc2-c2nn[nH]n2)cc1 [Losartan potassium, losartan potassium]
half-life: approximately 2 hours
